Measured values: ChEMBL document CHEMBL4699668, “Discovery and Structure-Activity Relationships of Novel Template, Truncated 1'-Homologated Adenosine Derivatives as Pure Dual PPARγ/δ Modulators” (J Med Chem, 2020)

Key:
[1] = biological target: T1, Peroxisome proliferator-activated receptor gamma (Homo sapiens, UniProt P37231)
T1 sequence (P37231 whole entry): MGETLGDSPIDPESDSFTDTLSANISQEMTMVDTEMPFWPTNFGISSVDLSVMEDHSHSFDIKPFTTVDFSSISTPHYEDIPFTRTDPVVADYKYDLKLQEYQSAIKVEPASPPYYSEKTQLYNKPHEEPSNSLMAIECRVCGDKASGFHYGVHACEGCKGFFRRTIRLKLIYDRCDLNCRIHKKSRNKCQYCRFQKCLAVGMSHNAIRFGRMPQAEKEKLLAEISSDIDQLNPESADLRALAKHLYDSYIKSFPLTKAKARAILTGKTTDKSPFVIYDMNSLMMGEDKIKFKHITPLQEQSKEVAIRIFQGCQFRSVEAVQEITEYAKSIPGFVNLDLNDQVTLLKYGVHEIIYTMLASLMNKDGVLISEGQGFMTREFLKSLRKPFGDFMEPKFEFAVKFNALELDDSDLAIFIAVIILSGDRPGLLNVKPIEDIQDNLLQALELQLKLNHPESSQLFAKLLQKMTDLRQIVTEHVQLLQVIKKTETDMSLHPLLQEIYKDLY
Description: Binding affinity to PPAR-gamma (unknown origin) by TR-FRET assay

[2] = biological target: T2, Peroxisome proliferator-activated receptor delta (Homo sapiens, UniProt Q03181)
T2 sequence (Q03181 whole entry): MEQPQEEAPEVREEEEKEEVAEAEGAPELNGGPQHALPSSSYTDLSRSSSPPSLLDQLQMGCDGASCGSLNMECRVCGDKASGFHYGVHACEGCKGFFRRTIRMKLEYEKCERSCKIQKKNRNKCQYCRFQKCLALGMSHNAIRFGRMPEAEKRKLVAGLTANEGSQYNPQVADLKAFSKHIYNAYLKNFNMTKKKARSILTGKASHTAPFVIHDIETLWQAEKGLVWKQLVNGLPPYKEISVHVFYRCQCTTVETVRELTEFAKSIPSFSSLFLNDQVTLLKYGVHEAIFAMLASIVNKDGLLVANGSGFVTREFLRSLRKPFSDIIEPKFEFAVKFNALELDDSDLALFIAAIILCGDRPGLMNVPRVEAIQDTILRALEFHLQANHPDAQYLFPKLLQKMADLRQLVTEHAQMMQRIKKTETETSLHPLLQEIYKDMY
Description: Binding affinity to PPAR-delta (unknown origin) by TR-FRET assay

Ki [1] | SMILES | Ki [2]
– | O[C@@H]1[C@H](O)CS[C@H]1n1cnc2c(NCc3cccc(I)c3)nc(Cl)nc21 | 0.0106 µM
7.3 µM | CC#Cc1nc(NCc2cccc(I)c2)c2ncn(C[C@@H]3SC[C@@H](O)[C@H]3O)c2n1 | –
9.55 µM | O[C@@H]1[C@H](O)CO[C@H]1Cn1cnc2c(NCc3cccc(Br)c3)nc(Cl)nc21 | 1.43 µM
7.66 µM | CC#Cc1nc(NCc2cccc(F)c2)c2ncn(C[C@@H]3SC[C@@H](O)[C@H]3O)c2n1 | –
7.04 µM | CC#Cc1nc(NCc2cccc(Br)c2)c2ncn(C[C@@H]3SC[C@@H](O)[C@H]3O)c2n1 | –

SMILES | Ki [1] | Ki [2]
O[C@@H]1[C@H](O)CS[C@H]1Cn1cnc2c(NCc3cccc(F)c3)nc(Cl)nc21 | 3.89 µM | 1.91 µM
O[C@@H]1[C@H](O)CS[C@H]1Cn1cnc2c(NCc3cccc(Br)c3)nc(Cl)nc21 | 4.07 µM | 0.592 µM
O[C@@H]1[C@H](O)CO[C@H]1Cn1cnc2c(NCc3cccc(Cl)c3)nc(Cl)nc21 | 7.66 µM | 0.504 µM
